In article PMC6270778, “Novel Cinnamic Acid Derivatives as Antioxidant and Anticancer Agents: Design, Synthesis and Modeling Studies” (Molecules, 2014):
“And” between values parts separate entries of the source, which are not always exact repeats. Equal entries are not always repeated. Marks after values point to notes of the source that are not given here.

Columns and labels:
[1] = Determination of RM values by reversed phase TLC (RPTLC); type: physicochemical; details: CH3OH:H2O:CH3COOH (77:23:0.1), average of at least 10 measurements
Procedure: Lipophilicity represents a significant physicochemical property for the absorption, distribution, metabolism and excretion of drugs (ADME properties). In this study the experimentally lipophilicity as RM values is measured by the reverse-phase thin layer chromatography (RPTLC), a reliable, fast and convenient method. The obtained values were compared with the corresponding log P values in n-octanol-buffer estimated by ClogP [33, 34]. It is well known that lipophilicity plays an important role at the ADME properties. In the present study additionally, it influences the radical scavenging property (i.e., in an aqueous phase) or the chain-breaking antioxidant activity (i.e., in biological membranes).
Reversed phase TLC (RPTLC) was studied using silica gel plates saturated with 55% (v/v) liquid paraffin in light petroleum ether and methanol/water mixture (77/23, v/v) containing 0.1% of acetic acid was used as a mobile phase. Spots were detected under UV light or by iodine vapours. RM values were determined by the corresponding Rf values (from ten individual measurements) using the equation RM = log [(1/Rf) − 1] [23, 24, 25].

[2] = tested on: A-549 (lung); assay: SRB cytotoxicity assay, A-549; type: cell-based; details: Homo sapiens, A549, 50% growth inhibition, 48 h exposure
Procedure: Human cancer cell lines used as targets were HT-29 (colon), A-549 (lung), OAW-42 (ovarian), MDA-MB-231 (breast), HeLa (immortal cells from cervical cancer). All cells were obtained from the American Type Culture Collection (ATCC). Cells were routinely grown as monolayer cell cultures in T-75 flasks (Costar) in an atmosphere containing 5% CO2 in air and 100% relative humidity at 37 °C and subcultured twice a week, restricting the total number of cell passages below 20. The culture medium used was Dulbecco’s modified Eagle’s medium (DMEM, Gibco, Grand Island, NY, USA) supplemented with 10% fetal bovine serum (Gibco), 2 mM glutamine (Sigma), 100 μg/mL streptomycin and 100 IU/mL penicillin.
Cell passages were carried out by detaching adherent, logarithmically growing cells after addition of 2–3 mL of a mixture of 0.05% solution of trypsin (Gibco, 1:250) in phosphate-buffered saline (PBS) with 0.02% EDTA and incubation for 3–5 min at 37 °C. For the experiments, cells were plated (100 μL containing 10,000 cells/well) in 96-well flat-bottom microplates microplates (Costar-Corning, Acton, MA 01720, USA) so that untreated cells were in exponential growth phase at the time of cytotoxicity evaluation. Cells were left for 24 h at 37 °C to resume exponential growth and stabilization and afterwards exposed to tested agents for 48 h by the addition of an equal volume (100 μL) of either complete culture medium (control wells), or twice the final drug concentrations diluted in complete culture medium (test wells). Drug cytotoxicity was measured by means of the SRB colorimetric assay estimating the survival fractions (SF) as the percent of control (untreated cells) absorbance. The SRB assay was carried out as previously described and modified by our group. In brief, culture medium was aspirated prior to fixation using a microplate-multiwash device (Tri-Continent Scientific, Inc., Grass Valley, CA, USA) and 50 μL of 10% cold (4 °C) trichloroacetic acid (TCA) were gently added to the wells. Microplates were left for 30 min at 4 °C, washed five times with deionized water and left to dry at room temperature for at least 24 h. Subsequently, 70 μL of 0.4% (w/v) sulforhodamine B (Sigma) in 1% acetic acid solution were added to each well and left at room temperature for 20 min. SRB was removed and the plates were washed five times with 1% acetic acid before air drying. Bound SRB was solubilized with 200 μL of 10 mM unbuffered Tris-base solution and plates were left on a plate shaker for at least 10 min. Absorbance was read in a 96-well plate reader at 492 nm subtracting the background measurement at 620 nm. The test optical density (OD) value was defined as the absorbance of each individual well, minus the blank value (“blank” is the mean optical density of the background control wells, n = 8). Mean values and the coefficient of variation (CV) from six replicate wells were calculated automatically. Results were expressed as the “survival fraction” (SF), as shown below.
For each tested compound a dose-effect curve was produced. Sextuplicate determinations gave a CV (Standard Deviation/mean %) of much less than 10%, resulting in standard error (SE) which was very low in all cases. The data showing inhibition of cellular growth are expressed as the fraction of cells that remains unaffected (fu) (survival fraction, SF), which is derived from the following equation: fu = ODx/ODc where ODx and ODc represent the test and the control optical density, respectively.

[3] = Superoxide radical scavenging activity (non-enzymatic, PMS/NADH, NBT method); details: 0.1 mM; no = no action under the used experimental conditions
Procedure: The superoxide anion radical (O2^−·) is less toxic than the hydroxyl radical, but still being one of the most known toxic ROS. Two different experimental assays are followed for the determination of superoxide anion radical scavenging activity: (i) one involves an enzymatic production of superoxide anions and (ii) the other is supported by a non- enzymatic procedure. Herein the test is performed at 0.1 mM concentration, generating superoxide anion radicals by a non-enzymatically assay (Table 3). Compound 1i presented the highest activity, followed by compound 1ii (75% and 50%, respectively).
Superoxide radicals were produced non-enzymatically by mixing PMS, NADH and air–oxygen. The nitroblue tetrazolium method was used for the estimation of the produced radicals. The reaction mixture containing compounds (0.1 mM), 3 μM PMS, 78 μM NADH, and 25 μM NBT in 19 μM phosphate buffer pH 7.4 was incubated for 2 min at room temperature. The acrylic acids were preincubated for 2 min before adding NADH (Table 4) and the absorption was recorded at 560 nm.

Structure (SMILES)	RM (±SD) [1]	IC50 [2] [µM]	O2−· (%) (±SD) [3]	melting point [°C]
O=C(O)C=CC=Cc1ccccc1 [Compound 3ii, 5-Phenylpenta-2,4-dienoic acid]	−0.893 (0.002) ^e	> 240	no	–
N#Cc1ccc(C=C(C(=O)O)c2ccccc2)cc1 [Compound 1i, 3-(4-Cyanophenyl)-2-phenylacrylic acid]	−0.895 (0.004) ^e	> 240	75% and 75 ± 1.0%	155 to 157
O=C(O)C=CC=Cc1ccc([N+](=O)[O-])cc1 [Compound 2ii, 5-(4-Nitrophenyl)penta-2,4-dienoic acid]	−0.868 (0.019) ^e	> 240	no	170 to 172
O=C(O)C(=CC=Cc1ccc([N+](=O)[O-])cc1)c1ccccc1 [Compound 2i, 5-(4-Nitrophenyl)-2-phenylpenta-2,4-dienoic acid]	−0.706 (0.062) ^e	134 ± 1.6	no	163 to 165
N#Cc1ccc(C=CC(=O)O)cc1 [Compound 1ii, 3-(4-Cyanophenyl)acrylic acid]	−0.972 (0.032) ^e	> 240	50% and 50 ± 0.5%	258 to 260
O=C(O)C(=CC(Br)=Cc1ccccc1)c1ccccc1 [Compound 4i, 4-Bromo-2,5-diphenylpenta-2,4-dienoic acid]	0.566 (0.001) ^e	210 ± 1	no	135 to 136
O=C(O)C=CC(Br)=Cc1ccccc1 [Compound 4ii, 4-Bromo-5-phenylpenta-2,4-dienoic acid]	−0.847 (0.044) ^e	173.5 ± 1.4	no	169 to 171
O=C(O)C(=CC=Cc1ccccc1)c1ccccc1 [Compound 3i, 2,5-Diphenylpenta-2,4-dienoic acid]	0.987 (0.018) ^e	> 240	no	145 to 147
